Test results taken from US20020068038A1, “Foaming tablet for cleaning the oral cavity and preparation method thereof” (priority 1998, published 2002).
Like-named read-outs stand apart in the source and are kept apart here.

How the values were obtained:
[1] = Streptococcus sanguis, MH medium, 96 hours anaerobic cultivation at 37° C., less than 10 colonies on LRBB agar
[2] = Streptococcuis mutans, MH medium, 96 hours anaerobic cultivation at 37° C., less than 10 colonies on LRBB agar
[3] = Lactobacillus casei, MH medium, 96 hours anaerobic cultivation at 37° C., less than 10 colonies on LRBB agar
[4] = Acetinobacillus, MH medium, 96 hours anaerobic cultivation at 37° C., less than 10 colonies on LRBB agar
[5] = Bacterioides gingivalis, MH medium, 96 hours anaerobic cultivation at 37° C., less than 10 colonies on LRBB agar
[6] = Capnocytophaga ochraceus, MH medium, 96 hours anaerobic cultivation at 37° C., less than 10 colonies on LRBB agar
[7] = Fusobacterium nucleanum, MH medium, 96 hours anaerobic cultivation at 37° C., less than 10 colonies on LRBB agar

Row | SMILES | disinfection concentration (Streptococcus sanguis) | disinfection concentration (Streptococcuis mutans) | disinfection concentration (Lactobacillus casei) | disinfection concentration (Acetinobacillus) | disinfection concentration (Bacterioides gingivalis) | disinfection concentration (Capnocytophaga ochraceus) | disinfection concentration (Eikenella corrdens) | disinfection concentration (Streptococcus sanguis; [1]) | disinfection concentration (Streptococcuis mutans; [2]) | disinfection concentration (Lactobacillus casei; [3]) | disinfection concentration (Acetinobacillus; [4]) | disinfection concentration (Bacterioides gingivalis; [5]) | disinfection concentration (Capnocytophaga ochraceus; [6]) | disinfection concentration (Fusobacterium nucleanum; [7]) | disinfection concentration (Eikenella corrdens; Eikenella corrdens, MH medium, 96 hours anaerobic cultivation at 37° C., less than 10 colonies on LRBB agar) | disinfection concentration (Fusobacterium nucleanum)
1 | O=C([O-])O.[K+] [KHCO3, potassium bicarbonate] | 300 | 600 | 600 | 300 | 100 | 150 | 300 |  |  |  |  |  |  |  |  | 
2 | O=S(=O)([O-])[O-].[Mg+2] [MgSO4, magnesium sulfate] |  |  |  |  |  |  |  | 1,600 | 1,700 | 1,500 | 300 | 600 | 400 | 300 |  | 
3 | [Cl-].[Na+] [NaCl, sodium chloride] |  |  |  |  |  |  |  | 2,200 | 1,300 | 1,200 | 250 | 650 | 350 | 400 | 400 | 
4 | O=C([O-])O.[Na+] [NaHCO3, sodium bicarbonate] | 500 | 450 | 500 | 250 | 500 | 200 |  |  |  |  |  |  |  |  |  | 450
